The values below come from PMC6593727 (Clinical Pharmacology in Drug Development, 2019).

By AUC(0-inf) is commonly meant total exposure, with the tail of the curve extrapolated. As a reminder, the Cmax is the highest concentration seen after dosing. What is called Tmax is the time from dosing to the highest level. For orientation: half-life means how long it takes for the measured level to halve. As a reminder, the t½ is how long it takes for the measured level to halve. Lower therefore signals rapid decline. In general, CL/F refers to clearance divided by bioavailability, as obtained after extravascular dosing.

The structures appear in SMILES notation. Like-named read-outs stand apart in the source and are kept apart here.

The target of data set [1] is CYP2C9 (Homo sapiens, UniProt P11712). The data set can be described thus: Inje cocktail DDI study: losartan and EXP‐3174 PK, assessment of CYP2C9 activity. The following applies: for AUC(0-inf) / Cmax / Tmax / half-life: female, human, plasma, oral; for AUC(0-inf): AUCinf; for Tmax: tmax (median [min‐max]); for half-life: t½.
The target in data set [2] is CYP3A4 (Homo sapiens, UniProt P08684). The following applies: for AUC(0-inf): AUCinf; for Tmax: tmax (median [min‐max]); for half-life: t½.
Data set [3] concerns the target T1, CYP2C19 (Homo sapiens, UniProt P33261). The following applies: for AUC(0-inf): AUCinf; for half-life: t½.
Data set [4] addresses CYP2D6 (Homo sapiens, UniProt P10635). The note with it: for AUC(0-inf) / Cmax / Tmax / half-life: female, human, plasma, oral; for AUC(0-inf): AUCinf; for Tmax: tmax (median [min‐max]); for half-life: t½.
Data set [5] addresses T1, CYP2C19. The following applies: single oral 20 mg omeprazole with 100 mg ASP8477 vs alone, female subjects; ref first‐in‐human study (8477‐CL‐0001); cited from earlier work.
Where [6] appears, read: + 20 mg ASP8477 once daily (day 7), mean ± SD.
[7] abbreviates: + 60 mg ASP8477 once daily (day 14), mean ± SD.
Setting [8] is: + 100 mg ASP8477 once daily (day 23), mean ± SD.
Where [9] appears, read: cocktail alone (day 1), mean ± SD.
The mark [10] stands for this setting: + 20 mg ASP8477 once daily (day 7).
The mark [11] stands for this setting: + 60 mg ASP8477 once daily (day 14).
Where [12] appears, read: + 100 mg ASP8477 once daily (day 23).
Setting [13] is: female, human, plasma, oral, probe midazolam, + 20 mg ASP8477 once daily (day 7), mean ± SD.
[14] abbreviates: female, human, plasma, oral, probe midazolam, + 60 mg ASP8477 once daily (day 14), mean ± SD.
The mark [15] stands for this setting: female, human, plasma, oral, probe midazolam, + 100 mg ASP8477 once daily (day 23), mean ± SD.
The mark [16] stands for this setting: probe dextromethorphan, + 60 mg ASP8477 once daily (day 14), mean ± SD.
Where [17] appears, read: probe dextromethorphan, + 100 mg ASP8477 once daily (day 23), mean ± SD.
The mark [18] stands for this setting: probe dextromethorphan, + 20 mg ASP8477 once daily (day 7).
Where [19] appears, read: probe dextromethorphan, + 60 mg ASP8477 once daily (day 14).
[20] abbreviates: probe dextromethorphan, + 100 mg ASP8477 once daily (day 23).
The mark [21] stands for this setting: probe dextromethorphan, + 20 mg ASP8477 once daily (day 7), mean ± SD.
Setting [22] is: female, human, plasma, oral, + 20 mg ASP8477 once daily (day 7), mean ± SD.
Where [23] appears, read: female, human, plasma, oral, + 60 mg ASP8477 once daily (day 14), mean ± SD.
Setting [24] is: female, human, plasma, oral, cocktail alone (day 1), mean ± SD.

CYP2D6, sequence (P10635 whole entry): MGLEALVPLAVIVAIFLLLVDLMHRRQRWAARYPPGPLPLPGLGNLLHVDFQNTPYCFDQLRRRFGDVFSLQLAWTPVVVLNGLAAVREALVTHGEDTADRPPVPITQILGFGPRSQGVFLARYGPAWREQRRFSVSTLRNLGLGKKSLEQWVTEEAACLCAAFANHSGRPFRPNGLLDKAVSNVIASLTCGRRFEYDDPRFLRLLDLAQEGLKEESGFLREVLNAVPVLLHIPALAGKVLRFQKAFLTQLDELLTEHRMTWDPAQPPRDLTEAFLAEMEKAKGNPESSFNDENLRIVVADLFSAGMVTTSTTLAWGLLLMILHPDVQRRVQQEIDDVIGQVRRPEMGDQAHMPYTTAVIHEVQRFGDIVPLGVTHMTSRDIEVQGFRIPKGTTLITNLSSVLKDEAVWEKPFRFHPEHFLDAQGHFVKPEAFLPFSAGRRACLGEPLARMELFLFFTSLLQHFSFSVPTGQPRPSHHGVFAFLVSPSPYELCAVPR
CYP2C9, sequence (P11712 whole entry): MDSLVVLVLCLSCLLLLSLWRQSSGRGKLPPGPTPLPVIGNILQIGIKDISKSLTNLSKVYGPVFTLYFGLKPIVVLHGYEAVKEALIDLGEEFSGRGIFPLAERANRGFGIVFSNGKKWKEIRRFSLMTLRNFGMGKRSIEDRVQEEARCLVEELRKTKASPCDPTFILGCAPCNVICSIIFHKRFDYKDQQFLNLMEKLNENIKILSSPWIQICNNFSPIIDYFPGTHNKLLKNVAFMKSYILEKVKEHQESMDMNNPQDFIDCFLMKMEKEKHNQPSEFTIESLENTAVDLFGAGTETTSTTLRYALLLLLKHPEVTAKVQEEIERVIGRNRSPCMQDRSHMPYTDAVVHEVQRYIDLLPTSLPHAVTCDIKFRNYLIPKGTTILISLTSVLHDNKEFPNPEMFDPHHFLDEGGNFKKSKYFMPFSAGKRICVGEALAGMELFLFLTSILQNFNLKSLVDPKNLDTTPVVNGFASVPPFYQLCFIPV
T1 sequence (P33261 whole entry): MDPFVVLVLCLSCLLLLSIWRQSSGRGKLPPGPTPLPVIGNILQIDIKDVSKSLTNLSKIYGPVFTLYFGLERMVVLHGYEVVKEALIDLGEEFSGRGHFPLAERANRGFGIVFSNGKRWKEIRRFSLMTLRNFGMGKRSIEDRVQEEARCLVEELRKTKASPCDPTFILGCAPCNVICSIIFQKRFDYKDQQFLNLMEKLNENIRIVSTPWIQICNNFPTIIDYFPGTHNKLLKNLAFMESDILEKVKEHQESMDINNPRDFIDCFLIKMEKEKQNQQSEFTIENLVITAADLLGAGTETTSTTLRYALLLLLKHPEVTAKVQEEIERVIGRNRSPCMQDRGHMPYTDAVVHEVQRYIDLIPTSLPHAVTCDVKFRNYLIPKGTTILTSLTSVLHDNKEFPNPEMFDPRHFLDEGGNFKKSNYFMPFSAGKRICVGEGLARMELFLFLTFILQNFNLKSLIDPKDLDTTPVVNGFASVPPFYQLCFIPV
CYP3A4, sequence (P08684 whole entry): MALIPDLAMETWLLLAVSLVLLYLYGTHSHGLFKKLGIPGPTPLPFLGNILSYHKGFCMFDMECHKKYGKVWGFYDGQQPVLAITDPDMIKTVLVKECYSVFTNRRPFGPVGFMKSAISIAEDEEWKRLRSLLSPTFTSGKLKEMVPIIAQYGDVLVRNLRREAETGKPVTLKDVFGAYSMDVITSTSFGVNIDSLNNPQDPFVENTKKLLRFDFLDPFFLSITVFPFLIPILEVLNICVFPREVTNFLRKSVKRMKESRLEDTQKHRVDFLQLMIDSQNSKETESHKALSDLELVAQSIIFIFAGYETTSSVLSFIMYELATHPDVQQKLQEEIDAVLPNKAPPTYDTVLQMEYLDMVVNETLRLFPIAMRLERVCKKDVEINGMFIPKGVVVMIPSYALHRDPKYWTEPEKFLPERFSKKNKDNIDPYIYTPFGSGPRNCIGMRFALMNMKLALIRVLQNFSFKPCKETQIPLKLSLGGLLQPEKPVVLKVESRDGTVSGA

With `CCCCc1nc(Cl)c(C(=O)O)n1Cc1ccc(-c2ccccc2-c2nn[nH]n2)cc1` [EXP‐3174, losartan acid], the AUC(0-inf) turned out to be 1100 ± 280 ng·h/mL in data set [1] (setting [6]), 960 ± 240 ng·h/mL in data set [1] (setting [7]), 780 ± 250 ng·h/mL in data set [1] (setting [8]) and 1100 ± 370 ng·h/mL in data set [1] (setting [9]). For the same compound, the Cmax was determined as 96 ± 48 ng/mL in data set [1] (setting [6]), 54 ± 26 ng/mL in data set [1] (setting [7]), 35 ± 19 ng/mL in data set [1] (setting [8]) and 100 ± 65 ng/mL in data set [1] (setting [9]). Besides, the Tmax was 5 h in data set [1] (setting [10]), 8 h in data set [1] (setting [11]), 8.1 h in data set [1] (setting [12]) and 4 h in data set [1] (cocktail alone (day 1)). In addition, the half-life is 8.8 ± 3.5 h in data set [1] (setting [6]), 13 ± 3.7 h in data set [1] (setting [7]), 12 ± 2.5 h in data set [1] (setting [8]) and 8 ± 0.64 h in data set [1] (setting [9]).

`OCc1ncc2n1-c1ccc(Cl)cc1C(c1ccccc1F)=NC2` [1‐OH‐Midazolam, 1‐hydroxymidazolam]: the “tmax (median [min‐max])” value in data set [2] (cocktail alone (day 1)) is 0.52 (0.48‐1.0) h. In addition, in data set [2] (setting [9]), the AUCinf came out at 12 ± 6.1 ng·h/mL, the Cmax was determined as 5.5 ± 3.0 ng/mL and the t½ was 7.8 ± 13 h.

As to `Cc1ncc2n1-c1ccc(Cl)cc1C(c1ccccc1F)=NC2` [Midazolam, midazolam], the CL/F in data set [2] (setting [9]) amounted to 66 ± 15 L/h. For the same compound, the AUC(0-inf) in data set [2] (setting [13]) was 38 ± 11 ng·h/mL; in data set [2] (setting [14]), 49 ± 15 ng·h/mL; in data set [2] (setting [15]), 51 ± 15 ng·h/mL. The Cmax worked out at 16 ± 5.7 ng/mL in data set [2] (female, human, plasma, oral, probe midazolam, Cmax, + 20 mg ASP8477 once daily (day 7), mean ± SD); 20 ± 5.1 ng/mL in data set [2] (female, human, plasma, oral, probe midazolam, Cmax, + 60 mg ASP8477 once daily (day 14), mean ± SD); 21 ± 5.1 ng/mL in data set [2] (female, human, plasma, oral, probe midazolam, Cmax, + 100 mg ASP8477 once daily (day 23), mean ± SD). The Tmax in data set [2] (female, human, plasma, oral, probe midazolam, + 20 mg ASP8477 once daily (day 7)) amounted to 0.52 h; in data set [2] (female, human, plasma, oral, probe midazolam, + 60 mg ASP8477 once daily (day 14)), 0.52 h; in data set [2] (female, human, plasma, oral, probe midazolam, + 100 mg ASP8477 once daily (day 23)) it was 0.5 h; in data set [2] (female, human, plasma, oral, probe midazolam, cocktail alone (day 1)), 0.52 h. The half-life in data set [2] (setting [13]) is 5 ± 0.93 h; in data set [2] (setting [14]), 5.1 ± 0.95 h; in data set [2] (setting [15]) it was 5.1 ± 1.2 h.

For `CCCCc1nc(Cl)c(CO)n1Cc1ccc(-c2ccccc2-c2nn[nH]n2)cc1` [Losartan, losartan, reference compound], the CL/F in data set [1] (setting [9]) came to 140 ± 61 L/h. Besides, the AUC(0-inf) in data set [1] (setting [6]) is 230 ± 100 ng·h/mL; in data set [1] (setting [7]), 320 ± 140 ng·h/mL; in data set [1] (setting [8]) it was 410 ± 180 ng·h/mL; in data set [1] (setting [9]), 220 ± 100 ng·h/mL. Moreover, the Cmax in data set [1] (setting [6]) was found to be 78 ± 37 ng/mL; in data set [1] (setting [7]) it was 81 ± 59 ng/mL; in data set [1] (setting [8]), 80 ± 64 ng/mL; in data set [1] (setting [9]) it was 64 ± 33 ng/mL. Besides, the Tmax in data set [1] (setting [10]) came out at 0.52 h; in data set [1] (setting [11]), 0.52 h; in data set [1] (setting [12]) it was 0.5 h; in data set [1] (cocktail alone (day 1)) it was 1 h. In addition, the half-life is 4 ± 2.2 h in data set [1] (setting [6]), 5 ± 2.2 h in data set [1] (setting [7]), 7.6 ± 3.3 h in data set [1] (setting [8]) and 3.7 ± 2.5 h in data set [1] (setting [9]).

For `COc1ccc2nc([S+]([O-])Cc3ncc(CO)c(OC)c3C)[nH]c2c1` (stereo not drawn) [5‐OH‐Omeprazole, 5‐hydroxyomeprazole], the “tmax (median [min‐max])” value in data set [3] (cocktail alone (day 1)) was 2.0 (0.98‐4.0) h. In data set [3] (setting [9]), this compound showed an AUCinf of 550 ± 130 ng·h/mL, a Cmax of 230 ± 76 ng/mL and a t½ of 1.4 ± 0.56 h.

As for `COc1ccc2c(c1)[C@]13CCCC[C@@H]1[C@H](C2)N(C)CC3` [Dextromethorphan, dextromethorphan, reference compound], the CL/F in data set [4] (setting [9]) was determined as 4000 ± 3200 L/h. Also, the total exposure AUC(0-inf) in data set [4] (setting [6]) was 16 ± 12 ng·h/mL; in data set [4] (setting [9]), 12 ± 7.9 ng·h/mL; in data set [4] (setting [16]), 39 ± 25 ng·h/mL; in data set [4] (setting [17]), 65 ± 44 ng·h/mL. Besides, the Cmax is 1.8 ± 1.2 ng/mL in data set [4] (setting [6]), 1.3 ± 0.72 ng/mL in data set [4] (setting [9]), 3.8 ± 2.3 ng/mL in data set [4] (setting [16]) and 5.6 ± 3.1 ng/mL in data set [4] (setting [17]). Also, the Tmax turned out to be 3 h in data set [4] (setting [18]), 3.1 h in data set [4] (setting [19]), 3 h in data set [4] (setting [20]) and 2 h in data set [4] (cocktail alone (day 1)). Further, the half-life in data set [4] (setting [21]) was 7.7 ± 2.1 h; in data set [4] (setting [16]), 9.3 ± 1.4 h; in data set [4] (setting [17]) it was 9.9 ± 1.5 h; in data set [4] (setting [9]), 8 ± 2.5 h.

For `COc1ccc2[nH]c([S+]([O-])Cc3ncc(C)c(OC)c3C)nc2c1` (stereo not drawn) [Omeprazole, omeprazole], the “increase of omeprazole AUCinf” value in data set [5] is listed as 7 fold. Further, the “increase of omeprazole Cmax” value in data set [5] is 3.5 fold. For the same compound, the CL/F in data set [3] (setting [9]) was 40 ± 20 L/h. Further, the AUC(0-inf) in data set [3] (setting [22]) came out at 1200 ± 520 ng·h/mL; in data set [3] (setting [23]) it was 2500 ± 680 ng·h/mL; in data set [3] (female, human, plasma, oral, + 100 mg ASP8477 once daily (day 23), mean ± SD), 3300 ± 1100 ng·h/mL; in data set [3] (setting [24]), 630 ± 300 ng·h/mL. The Cmax in data set [3] (female, human, plasma, oral, Cmax, + 20 mg ASP8477 once daily (day 7), mean ± SD) came out at 640 ± 190 ng/mL; in data set [3] (female, human, plasma, oral, Cmax, + 60 mg ASP8477 once daily (day 14), mean ± SD), 910 ± 260 ng/mL; in data set [3] (female, human, plasma, oral, Cmax, + 100 mg ASP8477 once daily (day 23), mean ± SD), 1100 ± 250 ng/mL; in data set [3] (female, human, plasma, oral, Cmax, cocktail alone (day 1), mean ± SD), 320 ± 150 ng/mL. The half-life in data set [3] (setting [22]) is 0.77 ± 0.2 h; in data set [3] (setting [23]), 1.1 ± 0.25 h; in data set [3] (setting [24]) it was 0.79 ± 0.17 h.

As to `CN1CC[C@@]23CCCC[C@@H]2[C@@H]1Cc1ccc(O)cc13` [Dextrorphan, dextrorphan], the AUC(0-inf) in data set [4] (setting [6]) turned out to be 2400 ± 420 ng·h/mL; in data set [4] (setting [9]), 2400 ± 450 ng·h/mL; in data set [4] (setting [16]), 2700 ± 510 ng·h/mL; in data set [4] (setting [17]) it was 3000 ± 520 ng·h/mL. Besides, the Cmax in data set [4] (setting [6]) turned out to be 470 ± 110 ng/mL; in data set [4] (setting [9]), 490 ± 133 ng/mL; in data set [4] (setting [16]), 430 ± 110 ng/mL; in data set [4] (setting [17]) it was 400 ± 100 ng/mL. Moreover, the Tmax in data set [4] (setting [18]) turned out to be 2 h; in data set [4] (setting [19]) it was 3.1 h; in data set [4] (setting [20]), 3 h; in data set [4] (cocktail alone (day 1)), 2 h. In addition, the half-life is 6.5 ± 1.7 h in data set [4] (setting [21]), 8.8 ± 2.1 h in data set [4] (setting [16]), 9.9 ± 2.4 h in data set [4] (setting [17]) and 5.8 ± 1.2 h in data set [4] (setting [9]).
